The text below walks through data of PMC5799307, “Creation of a long-acting nanoformulated dolutegravir” (Nature Communications, 2018).

The series deals with MDM. The series can be described thus: LDH cytotoxicity assay in MDM. In kind it is cell-based, human. As to conditions: 24 h, 400 µM.

For the compound `C[C@@H]1CCO[C@H]2Cn3cc(C(=O)NCc4ccc(F)cc4F)c(=O)c(O)c3C(=O)N12` [DTG, dolutegravir], the “cytotoxicity by LDH” value is given as “changes in cell vitality”.
